The text below walks through data of BindingDB's records for doi:10.1021/acs.jmedchem.0c00870 (Tu Dortmund University, 2020).

A short description of assay [1]: Inhibiton of EGFR (unknown origin) expressed in human A431 cells assessed as reduction in EGFR induced cell viability after 96 hrs by CellTiter-Glo assay. For orientation: In ATP-based viability assays light output follows the ATP content of the culture.
The nature of assay [2]: Inhibiton of EGFR L858R/T790M mutant (unknown origin) expressed in human NCI-H1975 cells assessed as reduction in EGFR induced cell viability after 96 hrs by CellTiter-Glo assay.

As a reminder, the IC50 is the concentration at which inhibition is half-maximal.

Regarding `C=CC(=O)Nc1cccc(-c2c[nH]c3ncnc(Nc4ccc(OCc5ccccn5)c(Cl)c4)c23)c1`, the IC50 in assay [1] is 1680 nM; in assay [2] it was 739 nM.

For the compound `C=CC(=O)Nc1cccc(-c2c[nH]c3ncnc(Nc4ccc(CN5C(=O)c6ccccc6C5=O)cc4)c23)c1`, the IC50 was found to be 1570 nM in assay [1] and 2660 nM in assay [2].

Turning to `C=CC(=O)Nc1cc(-c2c[nH]c3ncnc(Nc4ccc(OCc5ccccn5)c(Cl)c4)c23)ccc1OCCN(C)C`, the figures for the IC50 in assay [1] and in assay [2] were 862 nM and 807 nM, respectively.

As to `C=CC(=O)Nc1cc(-c2c[nH]c3ncnc(Nc4ccc5c(cnn5Cc5ccccc5)c4)c23)ccc1OCCO`, the IC50 in assay [1] turned out to be 2240 nM.
